Some results are limits rather than exact numbers.

The source of these data is patent US20250304582A1, “Bicyclic Ureas As Kinase Inhibitors” (Incyte Corporation, priority 2024, published 2025).

The target of experiment [1] is T1, pseudo-kinase domain (JH2, amino-acids 536-812) of human V617F mutant JAK2 (Homo sapiens, UniProt O60674, F794H/V617F/W659A/W777A).
T1 construct: JH2, amino-acids 536-812 with 3 surface mutations W659A, W777A, F794H; His (C); purchased BPS Bioscience 79498; host or cells: baculovirus expression system
T1 sequence (O60674 536-812 V617F/W659A/W777A/F794H): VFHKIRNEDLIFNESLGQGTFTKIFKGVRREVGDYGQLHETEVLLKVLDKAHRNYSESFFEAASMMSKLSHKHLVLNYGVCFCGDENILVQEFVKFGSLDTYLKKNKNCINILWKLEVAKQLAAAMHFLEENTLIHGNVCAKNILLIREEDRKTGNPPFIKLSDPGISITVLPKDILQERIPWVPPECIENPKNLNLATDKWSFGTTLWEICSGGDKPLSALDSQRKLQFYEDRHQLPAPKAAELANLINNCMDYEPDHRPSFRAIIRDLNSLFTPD
Briefly: JAK2 LanthaScreen JH2-V617F Binding Assay. As to conditions: 50 nM Fluorescent JAK2-JH2 Tracer, 1 hour at 25° C.; read-out: JH2 BIND V617F (Ex. C). In outline:
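Biotinylated His-Avi-tagged JH2 construct (536-812, W659A/W777A/F794H) at 0.26 nM, with 50 nM fluorescent JH2 tracer and 0.25 nM streptavidin-Tb, in pH 7.5 Tris/MgCl2 buffer; 1 h at 25° C. Non-specific binding defined with 2 mM ATP. IC50 derived from TR-FRET signal by four-parameter dose-response fit.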

The target in experiment [2] is T2, catalytic domain (JH1, amino acids 808-1132) of human JAK2 (Homo sapiens, UniProt O60674).
T2 construct: catalytic domain (JH1, amino acids 808-1132) of human JAK2; His (N); purchased BPS Bioscience 40450; host or cells: baculovirus expression system
T2 sequence (O60674 808-1132): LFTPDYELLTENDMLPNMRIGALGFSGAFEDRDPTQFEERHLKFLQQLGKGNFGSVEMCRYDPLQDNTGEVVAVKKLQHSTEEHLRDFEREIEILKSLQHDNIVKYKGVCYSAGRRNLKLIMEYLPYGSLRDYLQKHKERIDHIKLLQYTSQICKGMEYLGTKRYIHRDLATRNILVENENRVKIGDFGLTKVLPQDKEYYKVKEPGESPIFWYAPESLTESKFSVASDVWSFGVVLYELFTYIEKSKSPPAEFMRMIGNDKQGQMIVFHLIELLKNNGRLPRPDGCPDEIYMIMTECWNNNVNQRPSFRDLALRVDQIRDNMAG
The experiment is described as follows: JAK2 HTRF Enzyme Activity Assay. The class given is biochemical. As to conditions: ATP (30 μM or 1 mM; not stated which for the table), 60 minutes at 25° C.; read-out: JAK2 HTRF (Ex. D). Summed up: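 N-terminal His-tagged, baculovirus-expressed JH1 domain (0.015 nM) reacts 60 min at 25 °C with 500 nM biotinylated peptide and 30 μM or 1 mM ATP in Tris pH 7.5/10 mM MgCl2. Phosphorylation is detected by HTRF with Eu-anti-phosphotyrosine (PY20) and streptavidin-APC after EDTA stop. IC50 comes from four-parameter fits.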

For experiment [3], the target named is T3, catalytic domain (JH1, amino acids 826-1132) of human JAK2 (Homo sapiens, UniProt O60674).
T3 construct: catalytic domain (JH1, amino acids 826-1132) of human JAK2; FLAG (N); purchased Carna Biosciences 08-445-20N; host or cells: baculovirus expression system
T3 sequence (O60674 826-1132): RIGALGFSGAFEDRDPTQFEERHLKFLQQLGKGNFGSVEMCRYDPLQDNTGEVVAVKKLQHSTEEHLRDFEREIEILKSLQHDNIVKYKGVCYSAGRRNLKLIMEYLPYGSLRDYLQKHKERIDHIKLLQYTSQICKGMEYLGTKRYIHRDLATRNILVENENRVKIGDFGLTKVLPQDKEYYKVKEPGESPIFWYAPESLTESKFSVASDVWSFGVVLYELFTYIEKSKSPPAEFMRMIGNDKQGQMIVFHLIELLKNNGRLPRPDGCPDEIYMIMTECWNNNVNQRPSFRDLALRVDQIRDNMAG
Briefly: JAK2 LanthaScreen JH1 Binding Assay. As to conditions: 50 nM fluorescent JAK2-JH1 tracer, 2 hours at 25° C.; read-out: JH1 BIND (EX. A). In outline: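 FLAG-tagged biotinylated JAK2 JH1 (1.5 nM) was incubated 2 h at 25° C with compound, 50 nM fluorescent tracer and 0.5 nM Streptavidin-Tb in Tris pH 7.5 buffer. Tracer displacement read by TR-FRET; nonspecific binding defined with 2 mM ATP. IC50 from four-parameter fit.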

The target in experiment [4] is T4, pseudo-kinase domain (JH2, amino-acids 536-812) of human Wild Type JAK2 (Homo sapiens, UniProt O60674, F794H/W659A/W777A).
T4 construct: JH2, amino-acids 536-812 with 3 surface mutations W659A, W777A, F794H; His (C); purchased BPS Bioscience 79463; host or cells: baculovirus expression system
T4 sequence (O60674 536-812 W659A/W777A/F794H): as the sequence (O60674 536-812 V617F/W659A/W777A/F794H) above, with F82V counted along it
The experiment is described as follows: JAK2 LanthaScreen JH2-WT Binding Assay. As to conditions: 50 nM Fluorescent JAK2-JH2 Tracer, 1 hour at 25° C.; read-out: JH2 BIND WT (EX. B). In outline: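 JH2 domain (0.145 nM; His-Avi-tagged, biotinylated, baculovirus-expressed) incubated 1 h at 25° C. with compounds, 50 nM fluorescent JH2 tracer and 0.25 nM streptavidin-Tb in pH 7.5 Tris buffer with MgCl2, EGTA, DTT. Non-specific binding defined with 2 mM ATP. TR-FRET tracer displacement read; IC50 from four-parameter fit.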

Turning to `COC(=O)N[C@@H]1CC[C@@H](n2c(=O)n(C)c3cnc(Nc4ccc5cc(Cl)cc(C(F)(F)F)c5n4)cc32)C1` [Example 25, Methyl ((1R,3R)-3-(6-((6-chloro-8-(trifluoromethyl)quinolin-2-yl)amino)-3-methyl-2-oxo-2,3-dihydro-1H-imidazo[4,5-c]pyridin-1-yl)cyclopentyl)carbamate], the IC50 in experiment [1] is at most 10 nM; in experiment [2] it was over 1000 nM; in experiment [3], over 1000 nM; in experiment [4] it was at most 10 nM.

`[2H]C([2H])([2H])n1c(=O)n([C@@H]2CC[C@@H](NC(=O)OC)C2)c2cc(Nc3ccc4cc(C#N)cc(C(F)(F)F)c4n3)ncc21` [Example 26, Methyl ((1R,3R)-3-(6-((6-cyano-8-(trifluoromethyl)quinolin-2-yl)amino)-3-(methyl-d3)-2-oxo-2,3-dihydro-1H-imidazo[4,5-c]pyridin-1-yl)cyclopentyl)carbamate]: the IC50 in experiment [1] is at most 10 nM; in experiment [2] it was over 1000 nM; in experiment [3], over 1000 nM; in experiment [4], at most 10 nM.

Take `[2H]C([2H])([2H])n1c(=O)n([C@@H]2CC[C@@H](NC(=O)OC)C2)c2cc(Nc3ccc4cc(F)cc(C(F)(F)F)c4n3)ncc21` [Example 27, Methyl ((1R,3R)-3-(6-((6-fluoro-8-(trifluoromethyl)quinolin-2-yl)amino)-3-(methyl-d3)-2-oxo-2,3-dihydro-1H-imidazo[4,5-c]pyridin-1-yl)cyclopentyl)carbamate]: the IC50 in experiment [1] is at most 10 nM; in experiment [2], over 1000 nM; in experiment [3], over 1000 nM; in experiment [4], at most 10 nM.

Take `[2H]C([2H])([2H])n1c(=O)n([C@@H]2CC[C@@H](NC(=O)OC)C2)c2cc(Nc3ccc4cncc(C)c4n3)ncc21` [Example 28, Methyl ((1R,3R)-3-(3-(methyl-d3)-6-((8-methyl-1,6-naphthyridin-2-yl)amino)-2-oxo-2,3-dihydro-1H-imidazo[4,5-c]pyridin-1-yl)cyclopentyl)carbamate]: the IC50 is at most 10 nM in experiment [1], over 1000 nM in experiment [2], over 1000 nM in experiment [3] and at most 10 nM in experiment [4].

Take `[2H]C([2H])([2H])n1c(=O)n([C@@H]2CC[C@@H](NC(=O)OC)C2)c2cc(Nc3cc(C(C)(C)O)c4nccc(C)c4n3)ncc21` [Example 29, Methyl ((1R,3R)-3-(6-((4-(2-hydroxypropan-2-yl)-8-methyl-1,5-naphthyridin-2-yl)amino)-3-(methyl-d3)-2-oxo-2,3-dihydro-1H-imidazo[4,5-c]pyridin-1-yl)cyclopentyl)carbamate]: the IC50 was at most 10 nM in experiment [1], over 1000 nM in experiment [2], over 1000 nM in experiment [3] and at most 10 nM in experiment [4].

For `[2H]C([2H])([2H])n1c(=O)n([C@@H]2CC[C@@H](NC(=O)OC)C2)c2cc(Nc3ccc4ncc(C(C)C(F)(F)F)n4n3)ncc21` (stereo partly drawn) [Example 30, Methyl ((1R,3R)-3-(3-(methyl-d3)-2-oxo-6-((3-(1,1,1-trifluoropropan-2-yl)imidazo[1,2-b]pyridazin-6-yl)amino)-2,3-dihydro-1H-imidazo[4,5-c]pyridin-1-yl)cyclopentyl)carbamate], the IC50 in experiment [1] was at most 10 nM; in experiment [2] it was over 1000 nM; in experiment [3], over 1000 nM; in experiment [4] it was at most 10 nM.

On to `[2H]C([2H])([2H])n1c(=O)n([C@@H]2CC[C@@H](NC(=O)OC)C2)c2cc(Nc3ccc4ncc(C(F)(F)F)n4n3)ncc21` [Example 31, Methyl ((1R,3R)-3-(3-(methyl-d3)-2-oxo-6-((3-(trifluoromethyl)imidazo[1,2-b]pyridazin-6-yl)amino)-2,3-dihydro-1H-imidazo[4,5-c]pyridin-1-yl)cyclopentyl)carbamate], for which the IC50 in experiment [1] was at most 10 nM; in experiment [2] it was over 1000 nM; in experiment [3], over 1000 nM; in experiment [4] it was at most 10 nM.

As for `[2H]C([2H])([2H])n1c(=O)n([C@@H]2CC[C@@H](NC(=O)OC)C2)c2cc(Nc3ccc4cccc([N+](=O)[O-])c4n3)ncc21` [Example 35, Methyl ((1R,3R)-3-(3-(methyl-d3)-6-((8-nitroquinolin-2-yl)amino)-2-oxo-2,3-dihydro-1H-imidazo[4,5-c]pyridin-1-yl)cyclopentyl)carbamate], the IC50 in experiment [1] was at most 10 nM; in experiment [2], over 1000 nM; in experiment [3] it was over 1000 nM; in experiment [4] it was at most 10 nM.

On to `[2H]C([2H])([2H])n1c(=O)n([C@@H]2CC[C@@H](NC(=O)OC)C2)c2cc(Nc3ccc4nccc(C#N)c4n3)ncc21` [Example 36, Methyl ((1R,3R)-3-(6-((8-cyano-1,5-naphthyridin-2-yl)amino)-3-(methyl-d3)-2-oxo-2,3-dihydro-1H-imidazo[4,5-c]pyridin-1-yl)cyclopentyl)carbamate], for which the IC50 is at most 10 nM in experiment [1], over 1000 nM in experiment [2], over 1000 nM in experiment [3] and at most 10 nM in experiment [4].

On to `[2H]C([2H])([2H])n1c(=O)n([C@@H]2CC[C@@H](NC(=O)OC)C2)c2cc(Nc3cnc4cccc(C#N)c4n3)ncc21` [Example 37, Methyl ((1R,3R)-3-(6-((8-cyanoquinoxalin-2-yl)amino)-3-(methyl-d3)-2-oxo-2,3-dihydro-1H-imidazo[4,5-c]pyridin-1-yl)cyclopentyl)carbamate], for which the IC50 is 10 to 100 nM in experiment [1], 100 to 500 nM in experiment [2], 100 to 500 nM in experiment [3] and at most 10 nM in experiment [4].

As for `COC(=O)N[C@@H]1CC[C@@H](n2c(=O)n(C)c3cnc(Nc4ccc5cccc(C(F)F)c5n4)cc32)C1` [Example 38, Methyl ((1R,3R)-3-(6-((8-(difluoromethyl)quinolin-2-yl)amino)-3-methyl-2-oxo-2,3-dihydro-1H-imidazo[4,5-c]pyridin-1-yl)cyclopentyl)carbamate], the IC50 in experiment [1] is at most 10 nM; in experiment [2], over 1000 nM; in experiment [3] it was over 1000 nM; in experiment [4], at most 10 nM.

With `COC(=O)N[C@@H]1CC[C@@H](n2c(=O)n(C)c3cnc(Nc4ccc5cccc(C)c5n4)cc32)C1` [Example 39, Methyl ((1R,3R)-3-(3-methyl-6-((8-methylquinolin-2-yl)amino)-2-oxo-2,3-dihydro-1H-imidazo[4,5-c]pyridin-1-yl)cyclopentyl)carbamate], the IC50 in experiment [1] is 10 to 100 nM; in experiment [2], over 1000 nM; in experiment [3], over 1000 nM; in experiment [4], at most 10 nM.

For the compound `COC(=O)N[C@H]1CC[C@H](n2c(=O)n(C)c3cnc(Nc4ccc5cccc(Cl)c5n4)cc32)C1` [Example 40, Methyl ((1S,3S)-3-(6-((8-chloroquinolin-2-yl)amino)-3-methyl-2-oxo-2,3-dihydro-1H-imidazo[4,5-c]pyridin-1-yl)cyclopentyl)carbamate], the IC50 in experiment [1] was 10 to 100 nM; in experiment [2], over 1000 nM; in experiment [3], over 1000 nM; in experiment [4], at most 10 nM.

Regarding `COC(=O)N[C@@H]1CC[C@@H](n2c(=O)n(C)c3cnc(Nc4ccc5cccc(C(F)(F)F)c5n4)cc32)C1` [Example 41, Methyl ((1R,3R)-3-(3-methyl-2-oxo-6-((8-(trifluoromethyl)quinolin-2-yl)amino)-2,3-dihydro-1H-imidazo[4,5-c]pyridin-1-yl)cyclopentyl)carbamate], the IC50 in experiment [1] is at most 10 nM; in experiment [2], over 1000 nM; in experiment [3] it was over 1000 nM; in experiment [4] it was at most 10 nM.

Consider `COC(=O)N[C@@H]1CC[C@@H](n2c(=O)n(C)c3cnc(Nc4ccc5ncc(C#N)n5n4)cc32)C1` [Example 42, Methyl ((1R,3R)-3-(6-((3-cyanoimidazo[1,2-b]pyridazin-6-yl)amino)-3-methyl-2-oxo-2,3-dihydro-1H-imidazo[4,5-c]pyridin-1-yl)cyclopentyl)carbamate], for which the IC50 in experiment [1] is at most 10 nM; in experiment [2], over 1000 nM; in experiment [3] it was over 1000 nM; in experiment [4], at most 10 nM.
